Assay [1] addresses T1, acetylcholinesterase (Rattus norvegicus, UniProt P37136).
T1 construct: corpora striata dissected free, weighed and homogenized in 19 volumes; from tissue; host or cells: corpus striatum of male Wistar rats, whole homogenate in 0.05M phosphate buffer pH 7.2
T1 sequence (P37136 32-614): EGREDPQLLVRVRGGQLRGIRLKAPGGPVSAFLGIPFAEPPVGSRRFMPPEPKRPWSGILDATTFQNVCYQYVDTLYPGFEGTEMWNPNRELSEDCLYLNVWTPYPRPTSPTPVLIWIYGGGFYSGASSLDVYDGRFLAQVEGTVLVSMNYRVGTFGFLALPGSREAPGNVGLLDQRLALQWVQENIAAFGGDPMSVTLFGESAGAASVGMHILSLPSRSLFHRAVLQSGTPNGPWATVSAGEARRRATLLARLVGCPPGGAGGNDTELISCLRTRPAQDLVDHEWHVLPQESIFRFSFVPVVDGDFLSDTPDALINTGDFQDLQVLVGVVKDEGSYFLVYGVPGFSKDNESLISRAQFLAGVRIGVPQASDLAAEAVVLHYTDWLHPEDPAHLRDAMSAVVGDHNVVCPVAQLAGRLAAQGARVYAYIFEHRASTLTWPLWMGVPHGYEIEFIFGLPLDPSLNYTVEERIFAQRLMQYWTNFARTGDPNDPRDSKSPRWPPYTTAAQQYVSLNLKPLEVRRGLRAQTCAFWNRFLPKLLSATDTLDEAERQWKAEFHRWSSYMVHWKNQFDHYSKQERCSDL
Nature of the assay: In Vitro Inhibition of Acetylcholinesterase Activity in Rat Striatum. The assay is classed as biochemical. An excerpt: Cholinesterases are found throughout the body, both in the brain and in serum. However, only brain acetylcholinesterase (AChE) distribution is correlated with central cholinergic innervation.
The method described below was used in this invention for assaying cholinesterase activity. This is a modification of the method of Ellman et al., Biochem. Pharmacol. 7, 88 (1961).
1. 0.05M Phosphate buffer, pH 7.2
(c) add (a) to (b) until pH reaches 7.2
4. […] Drugs are serially diluted (1:10) such that the final concentration (in cuvette) is 10^-4 M and screened for activity. If active, IC50 values are determined from the inhibitory activity of subsequent concentrations.
Male Wistar rats are decapitated, brains rapidly removed, corpora striata dissected free, weighed and homogenized in 19 volumes (approximately 7 mg protein/ml) of 0.05M phosphate buffer, pH 7.2 using a Potter-Elvehjem homogenizer. A 25 microliter aliquot of the homogenate is added to 1.0 milliter vehicle or various concentrations of the test drug and preincubated for 10 minutes at 37° C.
Enzyme activity is measured with the Beckman DU-50 spectrophotometer. This method can be used for IC50 determinations and for measuring kinetic constants.
Reagents are added to the blank and sample cuvettes as follows:
Blank values are determined for each run to control for non-enzymatic hydrolysis of substrate and these values are automatically subtracted by the kindata program available on kinetics soft-pac module. This program also calculates the rate of absorbance change for each cuvette.
Substrate concentration is 10 mM diluted 1:2 in assay yielding final concentration of 5 mM. DTNB concentration is 0.5 mM yielding 0.25 mM final concentration. [formula] IC50 values are calculated from log-probit analysis

For assay [2], the system named is Scopolamine Induced Memory Deficit. The assay is classed as in vivo, mice. As to the method:
In this assay mice are tested for their ability to remember an unpleasant stimulus for a period of 24 hours. A mouse is placed in a chamber that contains a dark compartment; a strong incandescent light drives it to the dark compartment, where an electric shock is administered through metal plates on the floor. The animal is removed from the testing apparatus and tested again, 24 hours later, for the ability to remember the electric shock.
If scopolamine, an anticholinergic agent that is known to cause memory impairment, is administered before an animal's initial exposure to the test chamber, the animal re-enters the dark compartment shortly after being placed in the test chamber 24 hours later. This effect of scopolamine is blocked by an active test compound, resulting in a greater interval before re-entry into the dark compartment.
The results for an active compound are expressed as the percent of a group of animals in which the effect of scopolamine is blocked, as manifested by an increased interval between being placed in the test chamber and re-entering the dark compartment.
Results of this assay for some of the compounds of this invention and those for tacrine (reference compound) are presented in Table 2.

Where a name gives a salt, the structure may show the parent alone. Read-outs that look alike come from different tables or passages of the source.

The IC50 is the concentration that gives 50% inhibition. Low values mean greater potency, high ones weaker potency. The compound `CN1CC[C@@]2(C)c3cc(OC(=O)N[C@@H]4CON(Cc5ccccc5)C4=O)ccc3N(C)[C@@H]12` [(3aS-cis)-1,2,3,3a,8,8a-Hexahydro-1,3a,8-trimethypyrrolo-[2,3-b]indol-5-yl [2-(phenylmethyl)-3-oxo-4R-isoxazolidinyl]-carbamate hemihydrate] had an IC50 in assay [1] of 0.5 µM. The “% of Animals with Scopolamine Induced Memory Deficit Reversal” value in assay [2] (mice, 0.3 mg/kg of body weight, s.c, 24 hours) was 27%.

Consider `Nc1c2c(nc3ccccc13)CCCC2` [Tacrine, reference compound], for which the “% of Animals with Scopolamine Induced Memory Deficit Reversal” value in assay [2] (mouse, in vivo, 0.63 mg/kg) is 13%. The compound `CN1CC[C@@]2(C)c3cc(OC(=O)N[C@@H]4CCN(O)C4=O)ccc3N(C)[C@@H]12` [(3aS-cis)-1,2,3,3a,8,8a-Hexahydro-1,3a,8-trimethylpyrrolo[2,3-b]indol-5-yl [2-oxo-1-(hydroxy)-3R-pyrrolidinyl]carbamate, citrate salt] registered a 50% inhibitory concentration (IC50) in assay [1] of 2.31 µM. In assay [1], `CN1CC[C@@]2(C)c3cc(OC(=O)N[C@@H]4CCN(OCc5ccccc5)C4=O)ccc3N(C)[C@@H]12` [(3aS-cis)-1,2,3,3a,8,8a-Hexahydro-1,3a,8-trimethylpyrrolo-[2,3-b]indol-5yl [2-oxo-1-(phenylmethoxy)-3R-pyrrolidinyl]carbamate] had a half-maximal inhibitory concentration (IC50) of 0.067 µM. This IC50 lies about 34-fold lower than the previous one.
